Measured values taken from PubChem BioAssay AID248 (DTP/NCI, 2004).
Several values for one entry are separate records, joined by “and”; a condition that tells them apart may be missing. Equal entries are not always repeated. Inconclusive results and toxic doses are left out. Rule as the data show it: active = T/C of 150% or more; inactive = T/C below 125%.

Tested on: L1210 leukemia ip in BDF1 mice, survival T/C
Experiment: NCI In Vivo Anticancer Drug Screen. Data for tumor model L1210 Leukemia (intraperitoneal) in B6D2F1 (BDF1) mice
Details: endpoint: mean survival time, higher = longer survival
Method in brief: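 Tumor was transplanted into mice, which were then dosed with test compound or vehicle alone. Survival was recorded for each group, and the treated figure was expressed relative to the control figure.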

[1] = dose: 100.0 mg/kg/injection, schedule: Q01DX001 (ip), vehicle: carboxymethylcellulose (CMC)
[2] = dose: 200.0 mg/kg/injection, schedule: Q01DX001 (ip), vehicle: carboxymethylcellulose (CMC)
[3] = dose: 400.0 mg/kg/injection, schedule: Q01DX001 (ip), vehicle: carboxymethylcellulose (CMC)
[4] = dose: 25.0 mg/kg/injection, schedule: Q01DX009 (ip), vehicle: saline
[5] = dose: 50.0 mg/kg/injection, schedule: Q01DX009 (ip), vehicle: saline
[6] = dose: 100.0 mg/kg/injection, schedule: Q01DX001 (ip), vehicle: saline
[7] = dose: 100.0 mg/kg/injection, schedule: Q01DX009 (ip), vehicle: saline
[8] = dose: 100.0 mg/kg/injection, schedule: Q01DX009 (ip), vehicle: Klucel (hydroxypropylcellulose) (HPC)
[9] = dose: 100.0 mg/kg/injection, schedule: Q04DX003 (ip), vehicle: Klucel (hydroxypropylcellulose) (HPC)
[10] = dose: 200.0 mg/kg/injection, schedule: Q01DX009 (ip), vehicle: Klucel (hydroxypropylcellulose) (HPC)
[11] = dose: 200.0 mg/kg/injection, schedule: Q04DX003 (ip), vehicle: Klucel (hydroxypropylcellulose) (HPC)
[12] = dose: 400.0 mg/kg/injection, schedule: Q01DX009 (ip), vehicle: Klucel (hydroxypropylcellulose) (HPC)
[13] = dose: 400.0 mg/kg/injection, schedule: Q04DX003 (ip), vehicle: Klucel (hydroxypropylcellulose) (HPC)
[14] = dose: 200.0 mg/kg/injection, schedule: Q01DX009 (ip), vehicle: saline

Measured: T/C

N#CC(C#N)=C1c2ccccc2C(=O)c2ccccc21
inactive: dose: 50.0 mg/kg/injection, schedule: Q01DX001 (ip), vehicle: carboxymethylcellulose (CMC) 104 % of control | [1] 104 % of control | dose: 100.0 mg/kg/injection, schedule: Q04DX003 (ip), vehicle: saline with Tween-80 97 % of control | [2] 104 % of control | dose: 200.0 mg/kg/injection, schedule: Q04DX003 (ip), vehicle: saline with Tween-80 98 % of control | [3] 106 % of control | dose: 400.0 mg/kg/injection, schedule: Q04DX003 (ip), vehicle: saline with Tween-80 87 % of control

CN(C)C=C1C(=O)NC(=O)NC1=O
inactive: dose: 25.0 mg/kg/injection, schedule: Q01DX001 (ip), vehicle: saline 96 % of control | [4] 95 % of control | dose: 50.0 mg/kg/injection, schedule: Q01DX001 (ip), vehicle: saline 103 % of control | [5] 106 % of control | [6] 102 % of control | [7] 106 % of control

Clc1ccc(NP(Br)(c2ccccc2)(c2ccccc2)c2ccccc2)cc1
inactive: dose: 75.0 mg/kg/injection, schedule: Q01DX001 (ip), vehicle: other 107 % of control | dose: 150.0 mg/kg/injection, schedule: Q01DX001 (ip), vehicle: other 104 % of control | dose: 300.0 mg/kg/injection, schedule: Q01DX001 (ip), vehicle: other 101 % of control

Cc1ccc(NS(=O)(=O)c2ccc(F)cc2)c(C)c1
inactive: [8] 94 % of control | [9] 100 % of control | [10] 94 % of control | [11] 97 % of control | [12] 101 % of control | [13] 101 % of control

Cc1ccc(S(=O)(=O)N2CCC(=O)c3ccc(Cl)cc32)cc1
inactive: [9] 93 % of control | [11] 94 % of control | [13] 96 % of control

COc1ccc2c(=O)c(C)c(-c3ccccc3)oc2c1CN(C)C
inactive: dose: 0.19 mg/kg/injection, schedule: Q01DX009 (ip), vehicle: saline 96 % of control | dose: 0.39 mg/kg/injection, schedule: Q01DX009 (ip), vehicle: saline 112 % of control | dose: 0.78 mg/kg/injection, schedule: Q01DX009 (ip), vehicle: saline 110 % of control | dose: 0.78 mg/kg/injection, schedule: Q04DX003 (ip), vehicle: saline 100 % of control | dose: 1.56 mg/kg/injection, schedule: Q01DX009 (ip), vehicle: saline 112 % of control | dose: 1.56 mg/kg/injection, schedule: Q04DX003 (ip), vehicle: saline 94 % of control | dose: 3.12 mg/kg/injection, schedule: Q01DX009 (ip), vehicle: saline 108 % of control | dose: 3.12 mg/kg/injection, schedule: Q04DX003 (ip), vehicle: saline 93 % of control | dose: 5.0 mg/kg/injection, schedule: Q01DX001 (ip), vehicle: saline 103 % of control

O=Nc1cc(-c2nccc3ccccc23)[nH]c1-c1ccccc1
inactive: dose: 100.0 mg/kg/injection, schedule: Q01DX001 (ip), vehicle: other 94 % of control | dose: 200.0 mg/kg/injection, schedule: Q01DX001 (ip), vehicle: other 96 % of control | dose: 400.0 mg/kg/injection, schedule: Q01DX001 (ip), vehicle: other 94 % of control

CC(=O)NNS(=O)(=O)c1ccccc1
inactive: dose: 100.0 mg/kg/injection, schedule: Q01DX001 (ip), vehicle: Klucel (hydroxypropylcellulose) (HPC) 102 % of control | [8] 106 % of control | dose: 200.0 mg/kg/injection, schedule: Q01DX001 (ip), vehicle: Klucel (hydroxypropylcellulose) (HPC) 100 % of control | [10] 95 % of control | dose: 400.0 mg/kg/injection, schedule: Q01DX001 (ip), vehicle: Klucel (hydroxypropylcellulose) (HPC) 105 % of control

CCC1(c2ccccc2)OC1C(=O)OCCC(C)C (stereo not drawn)
inactive: dose: 100.0 mg/kg/injection, schedule: Q04DX002 (ip), vehicle: saline 93 % of control | dose: 200.0 mg/kg/injection, schedule: Q04DX002 (ip), vehicle: saline 93 % of control | dose: 400.0 mg/kg/injection, schedule: Q04DX002 (ip), vehicle: saline 101 % of control

C(=N/N=C(N/N=C/c1cccs1)N/N=C/c1cccs1)/c1cccs1
inactive: dose: 15.0 mg/kg/injection, schedule: Q01DX Z (ip), vehicle: carboxymethylcellulose (CMC) 97 % of control | dose: 30.0 mg/kg/injection, schedule: Q01DX Z (ip), vehicle: carboxymethylcellulose (CMC) 89 % of control | dose: 60.0 mg/kg/injection, schedule: Q01DX Z (ip), vehicle: carboxymethylcellulose (CMC) 97 % of control | dose: 120.0 mg/kg/injection, schedule: Q01DX Z (ip), vehicle: carboxymethylcellulose (CMC) 95 % of control and 97 % of control | dose: 240.0 mg/kg/injection, schedule: Q01DX Z (ip), vehicle: carboxymethylcellulose (CMC) 97 % of control | dose: 240.0 mg/kg/injection, schedule: Q01DX Z (oral), vehicle: carboxymethylcellulose (CMC) 107 % of control | dose: 480.0 mg/kg/injection, schedule: Q01DX Z (ip), vehicle: carboxymethylcellulose (CMC) 94 % of control | dose: 480.0 mg/kg/injection, schedule: Q01DX Z (oral), vehicle: carboxymethylcellulose (CMC) 107 % of control | dose: 960.0 mg/kg/injection, schedule: Q01DX Z (oral), vehicle: carboxymethylcellulose (CMC) 105 % of control | dose: 1920.0 mg/kg/injection, schedule: Q01DX Z (oral), vehicle: carboxymethylcellulose (CMC) 111 % of control

CCN(CC)CCOc1ccccc1OC
inactive: dose: 12.0 mg/kg/injection, schedule: Q01DX009 (ip), vehicle: saline 107 % of control | [4] 101 % of control | [5] 101 % of control | [6] 93 % of control | dose: 200.0 mg/kg/injection, schedule: Q01DX001 (ip), vehicle: saline 95 % of control

C(=NCCc1ccccc1)c1ccccc1B1OB(c2ccccc2C=NCCc2ccccc2)OB(c2ccccc2C=NCCc2ccccc2)O1
inactive: [8] 97 % of control | [9] 91 % of control | [10] 97 % of control | [11] 89 % of control | [12] 102 % of control | [13] 94 % of control

CCN(CC)Cc1cc(Nc2c3ccc([N+](=O)[O-])cc3nc3ccc(OC)cc23)ccc1O
inactive: [5] 95 % of control | [7] 98 % of control and 100 % of control | dose: 100.0 mg/kg/injection, schedule: Q04DX003 (ip), vehicle: saline 95 % of control | [14] 95 % of control and 109 % of control | dose: 200.0 mg/kg/injection, schedule: Q04DX003 (ip), vehicle: saline 95 % of control | dose: 400.0 mg/kg/injection, schedule: Q01DX009 (ip), vehicle: saline 97 % of control | dose: 400.0 mg/kg/injection, schedule: Q04DX003 (ip), vehicle: saline 90 % of control

CN(C)C=NC1(c2ccccc2)CCCCC1
inactive: dose: 25.0 mg/kg/injection, schedule: Q01DX009 (ip), vehicle: saline with Tween-80 96 % of control | dose: 50.0 mg/kg/injection, schedule: Q01DX009 (ip), vehicle: saline with Tween-80 96 % of control

CC(C)C(CCN1CCCCC1)(CN=C(N)N)c1cccc2ccccc12 (stereo not drawn)
inactive: dose: 5.0 mg/kg/injection, schedule: Q01DX009 (ip), vehicle: saline 99 % of control | dose: 6.25 mg/kg/injection, schedule: Q04DX002 (ip), vehicle: saline 100 % of control | dose: 10.0 mg/kg/injection, schedule: Q01DX009 (ip), vehicle: saline 100 % of control | dose: 12.5 mg/kg/injection, schedule: Q04DX002 (ip), vehicle: saline 93 % of control | dose: 20.0 mg/kg/injection, schedule: Q01DX009 (ip), vehicle: saline 101 % of control | dose: 25.0 mg/kg/injection, schedule: Q04DX002 (ip), vehicle: saline 97 % of control

CNc1ccc(C(=O)O)cc1
inactive: [5] 102 % of control | [7] 109 % of control | [14] 106 % of control

Cc1ccc(S(=O)(=O)N(CCC#N)CCC#N)cc1
inactive: dose: 25.0 mg/kg/injection, schedule: Q01DX009 (ip), vehicle: Klucel (hydroxypropylcellulose) (HPC) 106 % of control | dose: 50.0 mg/kg/injection, schedule: Q01DX009 (ip), vehicle: Klucel (hydroxypropylcellulose) (HPC) 112 % of control | [8] 97 % of control and 101 % of control | [10] 92 % of control | [12] 96 % of control

C(CC1CCNCC1)CC1CCNCC1 (tested in a mixture with another compound)
inactive: [6] 94 % of control

CCC1([N+](=O)[O-])COP(=O)(NCc2ccncc2)OC1 (stereo not drawn)
inactive: [1] 98 % of control | [2] 98 % of control | [3] 96 % of control
